Holding throughout (assay type): in vivo
For experiment [1], the system named is female BALB/c mouse. In words: Hapten-induced atopic dermatitis model (Example 13). Conditions: for itch / number of scratches in scratch test: 10 minutes, day 13, four hours after last challenge; for immune cell infiltration: histopathology; for immune cell infiltration / epidermal thickness / histopathological changes / histopathology score: back skin; for epidermal thickness / histopathological changes / histopathology score / IL-4 expression: prophylactic; for IL-4 expression / dermatitis severity scores: vs hapten vehicle control; for dermatitis severity scores: twice a day, 14 days. As to the method:
Experimental details: Preclinical animal model of atopic dermatitis was developed by [COMPOUND LEFT OUT] [COMPOUND LEFT OUT], a Hapten. In the current study, the test item Compound 2 was screened to evaluate its efficacy in [COMPOUND LEFT OUT] induced AD model. 0.15% of [COMPOUND LEFT OUT] was topically applied to 7-8 weeks old female BALB/c mouse from G2-G7 group at a volume of 100 μl/mouse on back skin once in 3 days to induced disease. For the G1 group, (Vehicle control) the same volume of acetone and olive oil (3:1) that was used to solubilize [COMPOUND LEFT OUT] was applied. Dexamethasone (5 mg/kg, p.o, qd) was dosed per oral once a day to G3 group animals. Compound 2 was administered twice a day to respective treatment groups (G4-G6) for 14 days. On the day of [COMPOUND LEFT OUT] administration, test compounds were dosed one hour prior to [COMPOUND LEFT OUT] insult. Clinical scores to assess the disease intensity were measured from visual examination for erythema, scaling, excoriation, and back skin thickness using dial caliper. All the scores were carried by blinded observers to treatment groups. Cumulative dermatitis severity scores were calculated by adding up the individual scores of erythema, scaling, thickness & excoriation. On day-13 of the study, four hours after the last [COMPOUND LEFT OUT] challenge, scratching behavior was recorded using a web camera in acrylic observational chambers. The number of scratches were measured for 10 minutes. Later, all the animals were terminally bled under mild anesthesia followed by humane sacrifice and back skin tissue was dissected. Required skin tissue samples were collected in fixative and part of the tissue was flash-frozen in liquid nitrogen and stored at −80 °C. Collected tissue samples were processed and used for biomarker analysis using gene and protein expression analysis by qPCR & ELISA, pharmacokinetic analysis by LC-MS and histopathology studies.

Experiment [2] deals with female BALB/c mouse. Description: MC-903 induced atopic dermatitis model, therapeutic mode (Example 14). Conditions: twice a day, vs MC-903 vehicle control. As to the method: Experimental details: Preclinical animal model of atopic dermatitis was developed by MC-903, a vitamin-D analogue. In the current study, the test item Compound 2 was screened in therapeutic mode, to evaluate its efficacy in MC-903 induced AD model. 2 nmol of MC-903 was topically applied to 8-10 weeks old female BALB/c mouse from G2-G8 group at a volume of 50 μl/mouse on back skin on every alternate day for 14 days to induced disease. For the G1 group, (Normal+ethanol control) the same volume of ethanol that was used to solubilize MC-903 was applied. Clobetasol (0.05%, 15 mg/mouse) was applied topically once a day to G3 group animals and Ruxolitinib (1.5%, 20 mg/mouse) was applied topically twice a day to G4 group animals. Compound 2 was administered twice a day to respective treatment groups (G4-G8) for 14 days. On the day of MC-903 administration, test compounds were dosed one hour prior to MC-903 insult. Clinical scores to assess the disease intensity were measured from visual examination for erythema, scaling and back skin thickness using dial caliper. All the scores were carried by blinded observers to treatment groups. Disease severity was assessed by dermatitis erythema & dermatitis scaling.

Experiment [3] has as its system female BALB/c mouse. In words: MC-903 induced atopic dermatitis model, therapeutic mode, low doses (Example 16). The following applies: p.o. twice a day; for dermatitis severity scores: 0.01 to 10 mg/kg, vs MC-903 vehicle control. As to the method:
Experimental details: Preclinical animal model of atopic dermatitis was developed by MC-903, a vitamin-D analogue. In the current study, the test item Compound 2 was screened in therapeutic mode, to evaluate its efficacy in MC-903 induced AD model. 2 nmol of MC-903 was topically applied to 8-10 weeks old female BALB/c mouse from G2-G8 group at a volume of 50 μl/mouse on back skin on every alternate day for 14 days to induced disease. For the G1 group, (Normal+ethanol control) the same volume of ethanol that was used to solubilize MC-903 was applied. Clobetasol (0.05%, 15 mg/mouse) was applied topically once a day to G3 group animals. Compound 2 was administered per oral twice a day at 0.01, 0.1, 1, 3 & 10 mg/kg to respective treatment groups (G4-G8) for 14 days. On the day of MC-903 administration, test compounds were dosed one hour prior to MC-903 insult. Clinical scores to assess the disease intensity were measured from visual examination for erythema, scaling and back skin thickness using dial caliper. All the scores were carried by blinded observers to treatment groups. Disease severity was assessed by dermatitis severity scores.

SMILES strings stand for the structures. Entries after “also recorded” stand apart in the source; their conditions may differ.

In the case of `C[C@@]12CCC(=O)N[C@@](C)(CO)[C@H]1CC[C@@]1(C)O[C@H](C3=CCOC3=O)C[C@@H]21` [Compound 2, (2S,3aR,5aS,6R,10aR,10bS)-6-(hydroxymethyl)-3a,6,10a-trimethyl-2-(2-oxo-2,5-dihydrofuran-3-yl) dodecahydro-8H-benzofuro[5,4-c]azepin-8-one], in the experiment on female BALB/c mouse [1], the “itch / number of scratches in scratch test” value is “reduced”, the immune cell infiltration entry is “significantly reduced”, the epidermal thickness entry is listed as “significantly reduced” and the “histopathological changes / histopathology score” value is reported as “significantly reduced”. For the same molecule, in the experiment with female BALB/c mouse [1], the IL-4 expression entry is given as “reduced” and the dermatitis severity scores entry is reported as “Significantly Reduces; also recorded: dose dependent decrease”. Also, in the experiment on female BALB/c mouse [1] (listed as compound 2), the “itch / number of scratches in scratch test” value was “reduces itch comparably to current first line therapy”, the immune cell infiltration result is “reduces immune cell infiltration”, the epidermal thickness result was “significantly reduces” and the “histopathological changes / histopathology score” value is given as “ameliorates; also recorded: significantly reduces”. Moreover, in the experiment with female BALB/c mouse [1] (listed as compound 2), the IL-4 expression entry is listed as “impacts IL-4 expression” and the dermatitis severity scores entry is given as “dose dependent decrease”. Also, in the experiment on female BALB/c mouse [2], the dermatitis erythema scores entry is given as “dose dependent decrease” and the dermatitis scaling scores result is recorded as “dose dependent decrease”. For the same molecule, in the experiment on female BALB/c mouse [2] (listed as compound 2), the dermatitis erythema scores entry is recorded as “significantly reduces” and the dermatitis scaling scores entry is recorded as “significantly reduces”. Moreover, the minimal effective dose in the experiment on female BALB/c mouse [3] (Mus musculus, po, 336 h, doses 0.01, 0.1, 1, 3, 10 mg/kg, read-out: lowest active dose (dermatitis severity scores)) was found to be 0.1 mg/kg. Moreover, the dermatitis severity scores result with female BALB/c mouse [3] was “significant dose dependent decrease”. Besides, the dermatitis severity scores entry with female BALB/c mouse [3] (listed as compound 2) was “significantly reduces”.

The values are drawn from patent publication US20260365662A1, “ISOANDROGRAPHOLIDE ANALOGS AND METHOD FOR TREATMENT USING THE SAME” (Enveda Therapeutics, Inc., priority 2023, published 2026).
